Experimental data from publication PMC11855478, “Bicyclic N,S-Acetals Containing Fused Cysteine-Amide System as New Heterocyclic Class Targeting Human Farnesyltransferase (FTase-h)” (International Journal of Molecular Sciences, 2025).

Tests used:
Assay type in all cases: cell-based, human
CCRF-CEM (Leukemia) = assay: NCI one dose, CCRF-CEM; conditions: 1.00E-5 Molar one dose
Summary of the method: (§1)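 NCI-run assay on its 60 human cancer cell lines, cytotoxicity determined via sulforhodamine B after 48 h of exposure.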

K-562 leukaemia cells = assay: NCI one dose, K-562; conditions: K-562, 1.00E-5 Molar one dose
Summary of the method: as §1

RPMI-8226 (Leukemia) = assay: NCI one dose, RPMI-8226; conditions: RPMI-8226, 1.00E-5 Molar one dose
Summary of the method: as §1

SR (Leukemia) = assay: NCI one dose, SR; conditions: 1.00E-5 Molar one dose
Procedure: (§2) 3.4. Cell Proliferation Assay
(§3) Selected compounds were tested on a panel of 60 human cancer cell lines at the National Cancer Institute (NCI), Germantown, MD, USA. The cytotoxicity studies were conducted using a 48 h exposure protocol using the sulfo-rhodamine B assay.

[1] = test system: A549/ATCC (Non-Small Cell Lung Cancer); assay: NCI one dose, A549/ATCC; conditions: 1.00E-5 Molar one dose
Summary of the method: as §1

[2] = test system: EKVX (Non-Small Cell Lung Cancer); assay: NCI one dose, EKVX; conditions: 1.00E-5 Molar one dose
Summary of the method: as §1

[3] = test system: HOP-92 (Non-Small Cell Lung Cancer); assay: NCI one dose, HOP-92; conditions: HOP-92, 1.00E-5 Molar one dose
Summary of the method: as §1

[4] = test system: NCI-H23 (Non-Small Cell Lung Cancer); assay: NCI one dose, NCI-H23; conditions: NCI-H23, 1.00E-5 Molar one dose
Summary of the method: as §1

[5] = test system: NCI-H322M (Non-Small Cell Lung Cancer); assay: NCI one dose, NCI-H322M; conditions: 1.00E-5 Molar one dose
Summary of the method: as §1

COLO 205 (Colon Cancer) = assay: NCI one dose, COLO 205; conditions: COLO 205, 1.00E-5 Molar one dose
Procedure: as §2, §3

HCC-2998 (Colon Cancer) = assay: NCI one dose, HCC-2998; conditions: HCC-2998, 1.00E-5 Molar one dose
Summary of the method: as §1

HCT-116 (Colon Cancer) = assay: NCI one dose, HCT-116; conditions: HCT-116, 1.00E-5 Molar one dose
Summary of the method: as §1

KM12 (Colon Cancer) = assay: NCI one dose, KM12; conditions: KM12, 1.00E-5 Molar one dose
Summary of the method: as §1

SW-620 (Colon Cancer) = assay: NCI one dose, SW-620; conditions: SW-620, 1.00E-5 Molar one dose
Summary of the method: as §1

SF-268 (CNS Cancer) = assay: NCI one dose, SF-268; conditions: SF-268, 1.00E-5 Molar one dose
Summary of the method: as §1

SF-295 (CNS Cancer) = assay: NCI one dose, SF-295; conditions: SF-295, 1.00E-5 Molar one dose
Summary of the method: (§4)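 Sulforhodamine B protein staining measured cell growth after cells from the NCI 60-line panel were exposed to compound for 48 h.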

SNB-75 (CNS Cancer) = assay: NCI one dose, SNB-75; conditions: SNB-75, 1.00E-5 Molar one dose
Summary of the method: as §1

U251 (CNS Cancer) = assay: NCI one dose, U251; conditions: U251, 1.00E-5 Molar one dose
Summary of the method: as §1

LOX IMVI (Melanoma) = assay: NCI one dose, LOX IMVI; conditions: 1.00E-5 Molar one dose
Summary of the method: as §1

MALME-3M (Melanoma) = assay: NCI one dose, MALME-3M; conditions: 1.00E-5 Molar one dose
Summary of the method: as §4

M14 (Melanoma) = assay: NCI one dose, M14; conditions: M14, 1.00E-5 Molar one dose
Summary of the method: as §1

MDA-MB-435 (Melanoma) = assay: NCI one dose, MDA-MB-435; conditions: MDA-MB-435, 1.00E-5 Molar one dose
Summary of the method: as §4

SK-MEL-2 (Melanoma) = assay: NCI one dose, SK-MEL-2; conditions: SK-MEL-2, 1.00E-5 Molar one dose
Summary of the method: as §1

SK-MEL-28 (Melanoma) = assay: NCI one dose, SK-MEL-28; conditions: SK-MEL-28, 1.00E-5 Molar one dose
Summary of the method: as §1

IGROV1 (Ovarian Cancer) = assay: NCI one dose, IGROV1; conditions: IGROV1, 1.00E-5 Molar one dose
Summary of the method: as §1

OVCAR-4 (Ovarian Cancer) = assay: NCI one dose, OVCAR-4; conditions: OVCAR-4, 1.00E-5 Molar one dose
Summary of the method: as §1

OVCAR-8 (Ovarian Cancer) = assay: NCI one dose, OVCAR-8; conditions: OVCAR-8, 1.00E-5 Molar one dose
Summary of the method: as §4

[6] = test system: NCI/ADR-RES (Ovarian Cancer); assay: NCI one dose, NCI/ADR-RES; conditions: 1.00E-5 Molar one dose
Summary of the method: as §1

786-0 (Renal Cancer) = assay: NCI one dose, 786-0; conditions: 786-0, 1.00E-5 Molar one dose
Summary of the method: as §1

A498 (Renal Cancer) = assay: NCI one dose, A498; conditions: A498, 1.00E-5 Molar one dose
Summary of the method: as §1

CAKI-1 (Renal Cancer) = assay: NCI one dose, CAKI-1; conditions: CAKI-1, 1.00E-5 Molar one dose
Summary of the method: as §1

RXF 393 (Renal Cancer) = assay: NCI one dose, RXF 393; conditions: RXF 393, 1.00E-5 Molar one dose
Summary of the method: as §1

UO-31 renal cancer cells = assay: NCI one dose, UO-31; conditions: UO-31, 1.00E-5 Molar one dose
Summary of the method: as §1

PC-3 (Prostate Cancer) = assay: NCI one dose, PC-3; conditions: PC-3, 1.00E-5 Molar one dose
Summary of the method: as §1

DU-145 (Prostate Cancer) = assay: NCI one dose, DU-145; conditions: DU-145, 1.00E-5 Molar one dose
Summary of the method: as §1

MCF7 (Breast Cancer) = assay: NCI one dose, MCF7; conditions: MCF7, 1.00E-5 Molar one dose
Summary of the method: as §1

[7] = test system: MDA-MB-231/ATCC (Breast Cancer); assay: NCI one dose, MDA-MB-231/ATCC; conditions: 1.00E-5 Molar one dose
Summary of the method: as §1

HS 578T (Breast Cancer) = assay: NCI one dose, HS 578T; conditions: 1.00E-5 Molar one dose
Summary of the method: as §1

T-47D (Breast Cancer) = assay: NCI one dose, T-47D; conditions: 1.00E-5 Molar one dose
Procedure: as §2, §3

Row | Compound | Growth Percent (CCRF-CEM (Leukemia)) [%] | Growth Percent (K-562 leukaemia cells) [%] | Growth Percent (RPMI-8226 (Leukemia)) [%] | Growth Percent (SR (Leukemia)) [%] | Growth Percent [1] [%] | Growth Percent [2] [%] | Growth Percent [3] [%] | Growth Percent [4] [%] | Growth Percent [5] [%] | Growth Percent (COLO 205 (Colon Cancer)) [%] | Growth Percent (HCC-2998 (Colon Cancer)) [%] | Growth Percent (HCT-116 (Colon Cancer)) [%] | Growth Percent (KM12 (Colon Cancer)) [%] | Growth Percent (SW-620 (Colon Cancer)) [%] | Growth Percent (SF-268 (CNS Cancer)) [%] | Growth Percent (SF-295 (CNS Cancer)) [%] | Growth Percent (SNB-75 (CNS Cancer)) [%] | Growth Percent (U251 (CNS Cancer)) [%] | Growth Percent (LOX IMVI (Melanoma)) [%] | Growth Percent (MALME-3M (Melanoma)) [%] | other results
1 | COc1ccc(CNC(=O)[C@@H]2CS[C@@]3(C)c4ccccc4C(=O)N23)cc1 [4bF] | 93.94 | 77.39 | 88.87 | 84.33 | 80.46 | 106.83 | 80.27 | 96.08 | 107.95 | 108.39 | 101.61 | 93.74 | 96.53 | 106.66 | 98.37 | 93.44 | 94.53 | 93.45 | 102.28 | 111.34 | Growth Percent (M14 (Melanoma)): 102.83%; Growth Percent (MDA-MB-435 (Melanoma)): 102.01%; Growth Percent (SK-MEL-2 (Melanoma)): 93.38%; Growth Percent (SK-MEL-28 (Melanoma)): 106.19%; Growth Percent (IGROV1 (Ovarian Cancer)): 107.92%; Growth Percent (OVCAR-4 (Ovarian Cancer)): 98.29%; Growth Percent (OVCAR-8 (Ovarian Cancer)): 94.06%; Growth Percent [6]: 97.36%; Growth Percent (786-0 (Renal Cancer)): 98.12%; Growth Percent (A498 (Renal Cancer)): 96.46%; Growth Percent (CAKI-1 (Renal Cancer)): 85.69%; Growth Percent (RXF 393 (Renal Cancer)): 95.28%; Growth Percent (UO-31 renal cancer cells): 89.30%; Growth Percent (PC-3 (Prostate Cancer)): 93.51%; Growth Percent (DU-145 (Prostate Cancer)): 105.22%; Growth Percent (MCF7 (Breast Cancer)): 90.37%; Growth Percent [7]: 93.86%; Growth Percent (HS 578T (Breast Cancer)): 96.39%; Growth Percent (T-47D (Breast Cancer)): 97.83%
2 | C[C@@]12SC[C@@H](C(=O)NCc3ccccc3C(F)(F)F)N1C(=O)c1ccccc12 [4bC] | 88.01 | 87.85 | 87.02 | 72.94 | 69.56 | 104.01 | 87.86 | 99.44 | 101.48 | 104.03 | 105.71 | 89.85 | 100.49 | 104.67 | 103.76 | 93.93 | 96.49 | 91.69 | 102.39 | 112.02 | Growth Percent (M14 (Melanoma)): 100.54%; Growth Percent (MDA-MB-435 (Melanoma)): 98.98%; Growth Percent (SK-MEL-2 (Melanoma)): 87.91%; Growth Percent (SK-MEL-28 (Melanoma)): 111.34%; Growth Percent (IGROV1 (Ovarian Cancer)): 103.13%; Growth Percent (OVCAR-4 (Ovarian Cancer)): 93.35%; Growth Percent (OVCAR-8 (Ovarian Cancer)): 92.54%; Growth Percent [6]: 101.64%; Growth Percent (786-0 (Renal Cancer)): 101.91%; Growth Percent (A498 (Renal Cancer)): 79.95%; Growth Percent (CAKI-1 (Renal Cancer)): 84.55%; Growth Percent (RXF 393 (Renal Cancer)): 101.10%; Growth Percent (UO-31 renal cancer cells): 91.39%; Growth Percent (PC-3 (Prostate Cancer)): 80.00%; Growth Percent (DU-145 (Prostate Cancer)): 102.05%; Growth Percent (MCF7 (Breast Cancer)): 90.83%; Growth Percent [7]: 100.45%; Growth Percent (HS 578T (Breast Cancer)): 94.37%; Growth Percent (T-47D (Breast Cancer)): 86.40%
